The nature of data set [1]: Quantification of doxycycline in formulations 1-3 by LC-MS/MS (stability). The following applies: over the time period studied (three months) under the storage conditions 5-25° C. In kind it is physicochemical. The procedure: 2.0-5.0 mg of doxycycline hyclate, usp (Medisca, CAS 24390-14-5, code 0434-04, lot 59177/D) was weighed into a scintillation vial and the mass was recorded. The recorded mass was then used to calculate the volume of solvent needed to generate a final concentration of 1 mg/mL and that amount of 60:28:12 H2O:CH3CN:MeOH was accurately added to the vial using a pipette. The solution was vortexed for 30 seconds or until the doxycycline hyclate was completely dissolved.
A 50 μg/mL solution of doxycycline hyclate was prepared by adding 50 μL of 1 mg/mL stock solution to 950 μL of methanol/water (50:50) and the resulting solution was vortexed for 10 seconds. […]
5-10 mgs of exemplary formulation 3 to be analyzed was weighed into a scintillation vial in duplicate. The mass was recorded and used to calculate the amount of methanol/water (50:50) to add to make up to 1 mg/mL and this was added. […]
Doxycycline was extracted in methanol:water from cream formulations by sonication, diluted and then quantified using liquid chromatography-triple quadruple mass spectrometry (LC-MS/MS). A calibration curve calculated by the peak area ratio of concentration of an analytical standard of doxycycline to an internal standard was used to calculate the concentrations of unknowns and establish linearity and LLOQ. […]

For data set [2] the following is noted: compounded from commercial tablets in the vehicles; Papich et al. (2013); cited from earlier work.

This is an account of results in patent publication US20180243212A1, “TRANSDERMAL FORMULATIONS FOR DELIVERY OF DOXYCYCLINE, AND THEIR USE IN THE TREATMENT OF DOXYCYCLINE-RESPONSIVE DISEASES AND CONDITIONS” (DELIVRA, INC., priority 2015, published 2018).

Turning to Doxycycline, in data set [1], the “degradation of the doxycycline” value is reported as less than 10%. Further, the “time over which the concentration of DOX can be assured” value in data set [2] is no more than 7 days.
